Data reported in ChEMBL document CHEMBL1833788, “Selective water-soluble gelatinase inhibitor prodrugs” (J Med Chem, 2011).

Experiments:
[1] = Solubility of the compound in aqueous solution at 10 mg/ml by UV spectroscopy; assay type: physicochemical
[2] = Chemical stability of the compound in aqueous solution at 10 mg/ml by HPLC up to 2 hrs; assay type: physicochemical; conditions: buffer
[3] = system: Plasma; assay: Metabolic stability of the compound in human plasma at 10 mM after 2 mins by reversed-phase HPLC/UV analysis; assay type: ADME, cell-free; conditions: 10000 µM
[4] = organism: Mus musculus; assay: Hepatic blood flow in mouse; assay type: ADME, organism-based, Liver
[5] = organism: Homo sapiens; assay: Hepatic blood flow in human; assay type: ADME, organism-based, Liver
[6] = system: Salmonella typhimurium; assay: Induction of mutagenicity in Salmonella Typhimurium TA98 at 1 mg/mL after 48 hrs by Ames assay in presence of rat liver S9 metabolic activation system; assay type: toxicity, organism-based; conditions: salmonella enterica subsp. enterica serovar typhimurium, s9, 48 h
[7] = system: Salmonella typhimurium; assay: Induction of mutagenicity in Salmonella Typhimurium TA98 at 1 mg/mL after 48 hrs by Ames assay in absence of rat liver S9 metabolic activation system; assay type: toxicity, organism-based; conditions: salmonella enterica subsp. enterica serovar typhimurium, s9, 48 h
[8] = Chemical stability of the compound in aqueous solution at 10 mg/ml by HPLC after 1 month; assay type: physicochemical; conditions: buffer, 730.5 h
[9] = system: Plasma; assay: Half life in human plasma at 10 mM by reversed-phase HPLC/UV analysis; assay type: ADME, cell-free; conditions: 10000 µM
[10] = system: Blood; assay: Half life in human blood at 10 mM by reversed-phase HPLC/UV analysis; assay type: ADME, tissue-based; conditions: 10000 µM
[11] = system: Blood; assay: Prodrug conversion in human blood assessed as release of 4-[4-((Thiiran-2-yl)methylsulphonyl)phenoxy]benzamine at 10 mM after 30 mins by reversed-phase HPLC/UV analysis; assay type: ADME, tissue-based; conditions: 0.5 h, 10000 µM
[12] = system: Liver; assay: Half life in mouse liver microsomes at 100 uM by reversed-phase HPLC/UV analysis; assay type: ADME, Microsome
[13] = organism: Rattus norvegicus; assay: Hepatic blood flow in rat; assay type: ADME, organism-based, Liver
[14] = system: Liver microsomes; assay: Half life in rat liver microsomes at 100 uM by reversed-phase HPLC/UV analysis; assay type: ADME, Microsome
[15] = system: Liver microsomes; assay: Half life in human liver microsomes at 100 uM by reversed-phase HPLC/UV analysis; assay type: ADME, Microsome
[16] = system: Liver microsomes; assay: Prodrug conversion in rat liver microsomes assessed as release of 4-(4-((S)-2-amino-5-guanidinopentanamido)phenoxy)benzenesulfinic acid after 60 mins by HPLC/MS analysis; assay type: ADME, Microsome; conditions: 1 h
[17] = system: Liver microsomes; assay: Prodrug conversion in rat liver microsomes assessed as release of 4-(4-aminophenoxy)benzenesulfinic acid after 60 mins by HPLC/MS analysis; assay type: ADME, Microsome; conditions: 1 h
[18] = system: Liver microsomes; assay: Prodrug conversion in rat liver microsomes assessed as release of N-(4-(4-(thiiran-2-ylmethylsulfonyl)phenoxy)phenyl)acetamide after 60 mins by HPLC/MS analysis; assay type: ADME, Microsome; conditions: 1 h
[19] = system: Salmonella typhimurium; assay: Induction of mutagenicity in Salmonella Typhimurium TA7001 to TA7006 at 1 mg/mL after 48 hrs by Ames assay in presence of rat liver S9 metabolic activation system; assay type: toxicity, organism-based; conditions: salmonella enterica subsp. enterica serovar typhimurium, s9, 48 h
[20] = system: Salmonella typhimurium; assay: Induction of mutagenicity in Salmonella Typhimurium TA7001 to TA7006 at 1 mg/mL after 48 hrs by Ames assay in absence of rat liver S9 metabolic activation system; assay type: toxicity, organism-based; conditions: salmonella enterica subsp. enterica serovar typhimurium

Row | SMILES | solubility [1] | Stability [2] | Stability [3] | Stability [8] | t1/2 [9] | t1/2 [10] | further results
1 | N=C(N)NCCC[C@H](N)C(=O)Oc1ccc(Oc2ccc(S(=O)(=O)CC3CS3)cc2)cc1 (stereo partly specified) | > 10000 µg/mL | Unstable | Unstable |  |  |  | 
2 | N=C(N)NCCC[C@H](N)C(=O)Nc1ccc(Oc2ccc(S(=O)(=O)CC3CS3)cc2)cc1 (stereo partly specified) | > 10000 µg/mL |  |  | Stable | 29.5 min | 25.4 min | QH [4]: 86 mL/min/kg; QH [5]: 21 mL/min/kg; Activity [6]: Non-toxic; Activity [7]: Non-toxic; Drug metabolism ([11]; TDE = time-dependent effect): tde; t1/2 [12]: > 60 min; QH [13]: 66 mL/min/kg; t1/2 [14]: 59.3 min; t1/2 [15]: > 60 min; Drug metabolism [16]: Active; Drug metabolism [17]: Active; Drug metabolism [18]: Active; Activity [19]: Non-toxic; Activity [20]: Non-toxic
3 | N=C(N)NCCC[C@H](NC(=O)[C@@H](N)CCCNC(=N)N)C(=O)Oc1ccc(Oc2ccc(S(=O)(=O)CC3CS3)cc2)cc1 (stereo partly specified) | > 10000 µg/mL | Unstable | Unstable |  |  |  | 
4 | NCC(=O)Nc1ccc(Oc2ccc(S(=O)(=O)CC3CS3)cc2)cc1 (stereo unspecified) | > 10000 µg/mL |  |  | Stable | 32.4 min | 27.1 min | Drug metabolism [11]: Active
5 | N=C(N)NCCC[C@H](NC(=O)[C@@H](N)CCCNC(=N)N)C(=O)Nc1ccc(Oc2ccc(S(=O)(=O)CC3CS3)cc2)cc1 (stereo partly specified) | > 10000 µg/mL |  |  | Stable | 11.8 min | 5.9 min | 
6 | NCCCC[C@H](N)C(=O)Oc1ccc(Oc2ccc(S(=O)(=O)CC3CS3)cc2)cc1 (stereo partly specified) | > 10000 µg/mL | Unstable | Unstable |  |  |  | 
7 | NCCCC[C@H](N)C(=O)Nc1ccc(Oc2ccc(S(=O)(=O)CC3CS3)cc2)cc1 (stereo partly specified) | > 10000 µg/mL |  |  | Stable | 25.1 min | 15.3 min | Drug metabolism [11]: Active
